Series [1] has as its target T1, aldose reductase (Oryctolagus cuniculus, UniProt P15122).
T1 construct: Aldose reductase was obtained from lens of male rabbit; from tissue; host or cells: lens of male rabbit (weighing 2.5-3.5 kg)
Put plainly: Aldose reductase inhibitory activity. It is filed as biochemical. The following applies: aldose reductase from lens of male rabbit. The procedure:
Aldose reductase was obtained from lens of male rabbit (weighing 2.5-3.5 kg) in the same manner as described in J. Biol. Chem., Vol. 240, 877-882 (1965). The inhibitory activity of the test compounds against the aldose reductase was measured in the same manner as described in Biochim. Biophys. Acta., Vol. 128, 474-482 (1966).

In series [2] the test system is ddY male mice. In words: Acute toxicity and observation of symptoms. It is filed as in vivo. Particulars: for abnormal symptoms (dysbasia, areflexia, astasia, blepharoptosis, dyspnea, skin flush, lacrimation, etc.): mouse, in vivo, po; for mortality (acute toxicity): oral, suspension in 0.5% carboxymethyl cellulose, observed for 14 days, dose not given.

Molecules are shown by their SMILES. pIC50: −log10 of the molar value. Where a name gives a salt, the structure may show the parent alone.

In series [1], `CN1C(=O)Nc2ccc(Cl)cc2C12NC(=O)NC2=O` (stereo not shown) [Test Compound 1, 6-Chloro-3-methyl-spiro[1,2,3,4-tetrahydroquinazoline-4,4'-imidazolidine]-2,2',5'-trione] gave a pIC50 of 7.25. In series [2], the “abnormal symptoms (dysbasia, areflexia, astasia, blepharoptosis, dyspnea, skin flush, lacrimation, etc.)” value is on record as “there was not observed any abnormal symptom” and the “mortality (acute toxicity)” value is “no mouse died”. The compound `CN1C(=O)Nc2ccc(Cl)cc2C12NC(=O)NC2=O` (stereo not drawn) [Test Compound 2, d-6-Chloro-3-methyl-spiro[1,2,3,4-tetrahydroquinazoline-4,4'-imidazolidine]-2,2',5'-trione] gave a pIC50 in series [1] of 7.66. In series [2], the “abnormal symptoms (dysbasia, areflexia, astasia, blepharoptosis, dyspnea, skin flush, lacrimation, etc.)” value is recorded as “there was not observed any abnormal symptom” and the “mortality (acute toxicity)” value was “no mouse died”. On to `CN1C(=O)Nc2ccc(Cl)cc2C12NC(=O)NC2=O` (stereo not shown) [Test Compound 3, 6-Chloro-3-methyl-spiro[1,2,3,4-tetrahydroquinazoline-4,4'-imidazolidine]-2,2',5'-trione-1'-sodium salt], for which the pIC50 in series [1] was 7.54.

For the compound `Cc1cc2c(cc1Cl)C1(NC(=O)NC1=O)N(C)C(=O)N2` (stereo not shown) [Test Compound 5, 6-Chloro-3,7-dimethyl-spiro[1,2,3,4-tetrahydroquinazoline-4,4'-imidazolidine]-2,2',5'-trione], the pIC50 in series [1] was 7.52. As for `CN1C(=O)Nc2ccc(Br)cc2C12NC(=O)NC2=O` (stereo not shown) [Test Compound 6, 6-Bromo-3-methyl-spiro[1,2,3,4-tetrahydroquinazoline-4,4'-imidazolidine]-2,2',5'-trione], the pIC50 in series [1] was 7.28. For `CN1C(=O)Nc2cc(Cl)c(Cl)cc2C12NC(=O)NC2=O` (stereo not shown) [Test Compound 7, 6,7-Dichloro-3-methyl-spiro[1,2,3,4-tetrahydroquinazoline-4,4'-imidazolidine]-2,2',5'-trione], the pIC50 in series [1] was 7.13. As to `CC(C)CN1C(=O)N(C)C2(NC(=O)NC2=O)c2cc(Cl)ccc21` (stereo not shown) [Test Compound 10, 1-Isobutyl-6-chloro-3-methyl-spiro[1,2,3,4-tetrahydroquinazoline-4,4'-imidazolidine]-2,2',5'-trione], the pIC50 in series [1] was 6.57. Turning to `CN1C(=O)NC2(C1=O)c1ccccc1NC(=O)N2C` (stereo not shown) [Test Compound 11, 3,1'-Dimethyl-spiro[1,2,3,4-tetrahydroquinazoline-4,4'-imidazolidine]-2,2',5'-trione, reference compound], the pIC50 in series [1] was 5.00.

In the case of `CN1C(=O)N(C)C2(C1=O)c1ccccc1NC(=O)N2C` (stereo not shown) [Test Compound 12, 3,1',3'-Trimethyl-spiro[1,2,3,4-tetrahydroquinazoline-4,4'-imidazolidine]-2,2',5'-trione, reference compound], in series [1], the pIC50 was less than 4.30.

A word on the pIC50: it is the negative decadic logarithm of the IC50, by convention in mol/L. Higher therefore signals a low IC50.

Source of the values: patent publication US4762839A, “Quinazolinone copmpounds useful for the prophyloxis and treatment of diabetic complications” (priority 1985, dated 1988).
